Data set [1] has as its target histone deacetylase (HeLa nuclear extracts). The data set is described as follows: In vitro assay for inhibition of histone deacetylase. To be noted: HeLa nuclear extracts 60 μg/ml, [3H]acetylated histone H4 peptide substrate, 30 min. It counts as biochemical. The protocol: The in vitro assay for inhibition of histone deacetylase (see example C.1) measures the inhibition of HDAC enzymatic activity obtained with the compounds of formula (I).
HeLa nuclear extracts (supplier: Biomol) were incubated at 60 μg/ml with 2×10^−8 M of radiolabeled peptide substrate. As a substrate for measuring HDAC activity a synthetic peptide, i.e. the amino acids 14-21 of histone H4, was used. The substrate is biotinylated at the NH2-terminal part with a 6-aminohexanoic acid spacer, and is protected at the COOH-terminal part by an amide group and specifically [^3H]acetylated at lysine 16. The substrate, biotin-(6-aminohexanoic)Gly-Ala-([^3H]-acetyl-Lys-Arg-His-Arg-Lys-Val-NH2), was added in a buffer containing 25 mM Hepes, 1 M sucrose, 0.1 mg/ml BSA and 0.01% Triton X-100 at pH 7.4. After 30 min the deacetylation reaction was terminated by the addition of HCl and acetic acid. (final concentration […] respectively). After stopping the reaction, the free ^3H-acetate was extracted with ethylacetate. After mixing and centrifugation, the radioactivity in an aliquot of the upper (organic) phase was counted in β-counter.
For each experiment, controls (containing HeLa nuclear extract and DMSO without compound), a blank incubation (containing DMSO but no HeLa nuclear extract or compound) and samples (containing compound dissolved in DMSO and HeLa nuclear extract) were run in parallel. In first instance, compounds were tested at a concentration of 10^−5M. […] In each test the blank value was substracted from both the control and the sample values. The control sample represented 100% of substrate deactylation. For each sample the radioactivity was expressed as a percentage of the mean value of the controls. […] Herein the effects of test compounds are expressed as pIC50 (the negative log value of the IC50-value).

Data set [2] has as its system A2780 ovarian carcinoma cells. The data set is described as follows: Antiproliferative activity on A2780 cells (MTT). In kind it is cell-based. The conditions noted are these: Homo sapiens, 96 h, four days of incubation, read-out: Cellular activity pIC50 (converted). The protocol: Cellular activity of the compounds of formula (I) was determined on A2780 tumour cells using a colorimetric assay for cell toxicity or survival (Mosmann Tim, Journal of Immunological Methods 65: 55-63, 1983)(see example C.2).
All compounds tested were dissolved in DMSO and further dilutions were made in culture medium. Final DMSO concentrations never exceeded 0.1% (v/v) in cell proliferation assays. Controls contained A2780 cells and DMSO without compound and blanks contained DMSO but no cells. MTT was dissolved at 5 mg/ml in PBS. A glycine buffer comprised of 0.1 M glycine and 0.1 M NaCl buffered to pH 10.5 with NaOH (1 N) was prepared (all reagents were from Merck).
The human A2780 ovarian carcinoma cells (a kind gift from Dr. T. C. Hamilton [Fox Chase Cancer Centre, Pennsylvania, USA]) were cultured in RPMI 1640 medium supplemented with 2 mM L-glutamine, 50 μg/ml gentamicin and 10% fetal calf serum. Cells were routinely kept as monolayer cultures at 37° C. in a humidified 5% CO2 atmosphere. Cells were passaged once a week using a trypsin/EDTA solution at a split ratio of 1:40. All media and supplements were obtained from Life Technologies. Cells were free of mycoplasma contamination as determined using the Gen-Probe Mycoplasma Tissue Culture kit (supplier: BioMérieux).
Cells were seeded in NUNC™ 96-well culture plates (Supplier: Life Technologies) and allowed to adhere to the plastic overnight. Densities used for plating were 1500 cells per well in a total volume of 200 μl medium. After cell adhesion to the plates, medium was changed and drugs and/or solvents were added to a final volume of 200 μl. Following four days of incubation, medium was replaced by 200 μl fresh medium and cell density and viability was assessed using an […] assay. To each well, 25 μl μl MTT solution was added and the cells were further incubated for 2 hours at 37° C. The medium was then carefully aspirated and the blue MT-formazan product was solubilized by addition of 25 μl glycine buffer followed by 100 μl of DMSO. […] Within an experiment, the results for each experimental condition are the mean of 3 replicate wells. For initial screening purposes, compounds were tested at a single fixed concentration of 10^−6 M. For active compounds, the experiments were repeated to establish full concentration-response curves. For each experiment, controls (containing no drug) and a blank incubation (containing no cells or drugs) were run in parallel. The blank value was subtracted from all control and sample values. For each sample, the mean value for cell growth (in absorbance units) was expressed as a percentage of the mean value for cell growth of the control. […] Herein the effects of test compounds are expressed as pIC50 (the negative log value of the IC50-value).

A short description of data set [3]: Kinetic solubility in aqueous media. It counts as physicochemical. To be noted: aqueous buffer, kinetic from dmso stock; phosphate citrate buffer pH 7.4, turbidity by nephelometer; read-out: Solubility Score. The protocol:
Kinetic solubility in aqueous media measures the ability of a compound to stay in aqueous solution upon dilution (see example C.3).
DMSO-stock solutions are diluted with a single aqueous buffer solvent in 3 consecutive steps. For every dilution turbidity is measured with a nephelometer.
In the first dilution step, 10 μl of a concentrated stock-solution of the active compound, solubilized in DMSO (5 mM), was added to 100 μl phosphate citrate buffer pH 7.4 and mixed. In the second dilution step, an aliquot (20 μl) of the first dilution step was further dispensed in 100 μl phosphate citrate buffer pH 7.4 and mixed. Finally, in the third dilution step, a sample (20 μl) of the second dilution step was further diluted in 100 μl phosphate citrate buffer pH 7.4 and mixed. All dilutions were performed in 96-well plates. Immediately after the last dilution step the turbidity of the three consecutive dilution steps were measured with a nephelometer. Dilution was done in triplicate for each compound to exclude occasional errors. Based on the turbidity measurements a ranking is performed into 3 classes. Compounds with high solubility obtained a score of 3 and for this compounds the first dilution is clear. Compounds with medium solubility obtained a score of 2. For these compounds the first dilution is unclear and the second dilution is clear. […] The solubility of 9 compounds was measured.

Test in data set [4]: not given
The source holds these as a separate data set.

Values after ≈ are worked out from the molar mass of the structure shown. Where two headings read alike, the source gives them in different places.

For `COc1cc(N)c(Cl)cc1C(=O)NC1CCN(CCCOc2ccc(F)cc2)CC1OC` (stereo not shown) [Cisapride], where the note is “human, 15 min, 5 μM”, the “% metabolism” value worked out at 45%.

On to `O=C(NO)c1cnc(N2CCC(NS(=O)(=O)c3ccc4ccccc4c3)CC2)nc1` [Co. No. 2], for which the “Enzyme activity pIC50” value in data set [1] came out at 6.104. Besides, in data set [2], the IC50 is 0.0271 µM. The solubility (commonly the dissolved amount per volume that the medium holds) in data set [3] is more than 455 µM. The melting point (usually the temperature of the solid-liquid transition) in data set [4] turned out to be 200 °C.

With `O=C(NO)c1ccc(N2CCC(CNS(=O)(=O)c3ccc4ccccc4c3)CC2)nc1` [Co. No. 4], the “Enzyme activity pIC50” value in data set [1] is 7.574. In addition, the IC50 in data set [2] was 1.36 µM. In addition, in data set [3], the solubility is less than 76 µM. Further, the melting point in data set [4] was determined as 173 °C.

On to `O=C(NO)c1cnc(N2CCC(CNS(=O)(=O)c3ccc4ccccc4c3)CC2)nc1` [Co. No. 5], for which the “Enzyme activity pIC50” value in data set [1] is 8.123. Also, in data set [2], the IC50 is 0.369 µM. Moreover, in data set [3], the solubility was less than 76 µM.

`O=C(NO)c1cnc(N2CC[C@H](NS(=O)(=O)c3ccc4ccccc4c3)[C@H](CO)C2)nc1` [Co. No. 7]: the “Enzyme activity pIC50” value in data set [1] is on record as 7.533. The IC50 in data set [2] was 9.62 µM. Further, in data set [3], the solubility was more than 455 µM. In addition, in data set [4], the melting point came out at 203 °C.

In the case of `O=C(NO)c1cnc(N2CC[C@H](CNS(=O)(=O)c3ccc4ccccc4c3)[C@H](O)C2)nc1` [Co. No. 8], the “Enzyme activity pIC50” value in data set [1] came to 7.355. Also, the IC50 in data set [2] is 3.04 µM. Moreover, the solubility in data set [3] is more than 455 µM. In addition, the melting point in data set [4] worked out at 224 °C.

As to `O=C(NO)c1cnc(N2CCC(O)(CNS(=O)(=O)c3ccc4ccccc4c3)CC2)nc1` [Co. No. 9], the “Enzyme activity pIC50” value in data set [1] is given as 7.579. For the same compound, the IC50 in data set [2] was more than 10 µM. The solubility in data set [3] fell in the range of 76 to 455 µM (≈ 34.8 to 208 µg/mL). For the same compound, in data set [4], the melting point was found to be 228 °C.

For the compound `CN(C1CCN(c2ncc(C(=O)NO)cn2)CC1)S(=O)(=O)c1ccc2ccccc2c1` [Co. No. 29], in data set [1], the “Enzyme activity pIC50” value came to 7.04. The IC50 in data set [2] is 3.72 µM. The compound also registered a melting point in data set [4] of more than 260 °C.

In the case of `O=C(NO)c1ccc(N2CCC(NS(=O)(=O)c3ccc(-c4ccccc4)cc3)CC2)nc1` [compound 15], the “Enzyme activity pIC50” value in data set [1] is given as 7.413. The IC50 in data set [2] is 1.24 µM. In addition, the solubility in data set [3] is less than 76 µM.

On to `CCCO` [propanol], for which the “% metabolism” value (15 min incubation with active microsomes (1 mg/ml), compound 5 μM) worked out at 25%.

The values above are taken from patent US7767679B2, “Sulfonylamino-derivatives as novel inhibitors of histone deacetylase” (Janssen Pharmaceutica N.V., priority 2002, dated 2010).
